Source: patent US8080644B2, “Oligonucleotide analogues” (Exiqon A/S, priority 1997, dated 2011)
Strand notation (5' to 3'): a small letter for the sugar, then the base; units joined by * are phosphorothioate-linked, units joined directly phosphodiester-linked; [ ] holds rarer units or linkages, { } end groups; capitals alone tell only the bases. V = LNA monomer of structure V, bold; X = bicyclic LNA-type nucleotide of structure X in the publication's (LNA marked in bold); Y = bicyclic LNA-type thymidine monomer of structure Y; l = locked nucleic acid (LNA); d = 2'-deoxy (DNA)

What was measured:
5′-d(AAAAAAAAAAAAAA)-3′ = experiment: Tm of duplex (spectrophotometric melting curves); assay type: binding; conditions: vs 5′-d(AAAAAAAAAAAAAA)-3′; 10 mM Na2HPO4 pH 7.0, 100 mM NaCl, 0.1 mM EDTA
Experimental: (§1) Thermostability of oligonucleotides containing monomers of formula V, X, Y and Z^T, Z^U, Z^G, Z^C, Z^A, Z^MeC. The thermostability of the LNA modified oligonucleotides were determined spectrophotometrically using a spectrophotometer equipped with a thermoregulated Peltier element. Hybridisation mixtures of 1 ml were prepared containing either of 3 different buffers (10 mM Na2HPO4, pH 7.0, 100 mM NaCl, 0.1 mM EDTA; 10 mM Na2HPO4 pH 7.0, 0.1 mM EDTA; 3M tetramethylammoniumchlorid (TMAC), 10 mM Na2HPO4, pH 7.0, 0.1 mM EDTA) and equimolar (1 μM or 1.5 μM) amounts of the different LNA modified oligonucleotides and their complementary or mismatched DNA or RNA oligonucleotides. Identical hybridisation mixtures using the unmodified oligonucleotides were prepared as references. The Tm's were obtained as the first derivative of the melting curves. FIG. 2 illustrates the monomeric LNAs used. The nomenclature V, X, Y and Z^T, Z^U, Z^G, Z^C, Z^A, Z^MeC refer to structures V, X, Y and Z of FIG. 2. In the tables, the nucleobases of the LNA monomers are indicated. Furthermore, for the thio and amino variants of the LNA structure Z of the last two tables, the nomenclature used is, e.g., Z^TS and Z^TNH, respectively.

5′-(AAAAAAAAAAAAAA)-3′ = experiment: Tm of duplex (spectrophotometric melting curves); assay type: binding; conditions: vs RNA 5′-(AAAAAAAAAAAAAA)-3′; 10 mM Na2HPO4 pH 7.0, 100 mM NaCl, 0.1 mM EDTA
Experimental: as §1

[1] = tested on: Nras amplicons (Nras 910, Nras 600, Nras 200); experiment: Capture of Nras PCR amplicons by immobilised probes; assay type: binding, human; conditions: native amplicons; 1 pmol probe per well
Experimental: Three DIG labelled amplicons from Nras sequence (ref.: Nucleic Acid Research, 1985, Vol. 13, No. 14, p 52-55) were generated by PCR amplification as follows:
PCR reaction mixture for Nras amplicons: 2.3 μl human placental genomic DNA (440 ng/μl), 50 μl 10×PCR buffer (without MgCl2 Perkin Elmer), 30 μl 25 mM MgCl2, 50 μl dNTP-mix (2 mM dATP, dCTP, dGTP and 1.8 mM dTTP), 10 μl 1 mM Dig-11-dUTP, 10 μl 25 μM forward primer, 10 μl 25 μM reverse primer, 5 μl 5 U/μl AmpliTaq Gold (Perkin Elmer) and water ad 500 μl. PCR reaction: The above mixture was made for all the Nras PCR products. The only difference being reverse primer 910 bp, 600 bp or 200 bp added once at a time. The PCR mixtures were aliquoted into ten PCR tubes each and cycled in a Perkin Elmer 9600 at the following conditions: 95° C. 3 min; 55° C. 2 min, 72° C. 3 min, 95° C. 1 min (30 cycles); 55° C. 2 min, 72° C. 10 min and 4° C. soak. 10 μl from each PCR reaction was analysed on a standard agarose gel and the expected fragments of approximately 910 bp, 600 bp and 200 bp were observed. Assay conditions: Wells of a streptavidin coated micro-titer plate (Boehringer Mannheim; binding capacity of 20 pmol biotin per well) were incubated for 1 hour in 5×SSCT (0.75 M NaCl, 75 mM citrate, pH 7.0, 0.1% Tween 20) at 37° C. with either 1 pmol of DNA Nras Cap A (biotin-5′-TTCCACAGCACAA-3′) (SEQ ID NO:37), LNA/DNA Nras Cap A (biotin-5′-TTCCACAGCACAA-3′) (SEQ ID NO:38), LNA Nras Cap A (biotin-5′-TTCCACAGCACAA-3′) (SEQ ID NO:39), DNA Nras Cap B (biotin-5′-AGAGCCGATAACA-3′) (SEQ ID NO:40), LNA/DNA Nras Cap B (biotin-5′-AGAGCCGATAACA-3′) (SEQ ID NO:41) or LNA Nras Cap B (biotin-5′-AGAGCCGATAACA-3′) (SEQ ID NO:42); LNA nucleosides in bold. The Nras Cap A capture probes capture amplicons Nras 910, Nras 600 and Nras 200. Nras Cap B capture probes capture specific amplicons Nras 910 and Nras 600. After incubation with the different capture probes, the wells were washed in 5×SSCT and 5 μl native or denatured (95° C. 5 min and 10 min on ice) DIG-labelled amplicons (Nras 910, Nras 600 or Nras 200) in 95 μl 1×SSCT (0.15 M NaCl, 15 mM citrate, pH 7.0, 0.1% Tween 20) were added per well and incubated for 1 hour at 37° C. The wells were washed three times in phosphate buffered saline (1×PBST, 0.15 M Nat, pH 7.2, 0.05% Tween 20) and incubated 30 min at 37° C. with 200 μl peroxidase labelled anti-DIG antibodies (Boehringer Mannheim, diluted 1:1000 in 1×PBST). Finally the wells were washed three times in 1×PBST and assayed for peroxidase activity by adding 100 μl of substrate solution (0.1 M citrate-phosphate buffer pH 5.0, 0.66 mg/ml ortho-phenylenediamine dihydrochloride, 0.012% H2O2) the reaction was stopped after 9 min by adding 100 μl 0.5 M H2SO4 and diluted 4 times in H2SO4 before the absorbance at 492 nm was read in a micro-titer plate reader. […] We conclude that LNA modified oligos containing mixed LNA nucleosides (A, T, G or C LNA nucleosides) function efficiently in sequence specific capture of PCR amplicons when immobilised on a solid surface. We further conclude that LNA offers a means to construct capture probes that will function efficiently in amplicon capture without prior denaturation i.e. capture by strand displacement. This ability facilitates a significant simplification of current amplicon detection formats based on DNA.

Substance	Tm (° C.) Na2HPO4/NaCl/EDTA (5′-d(AAAAAAAAAAAAAA)-3′) [°C]	Tm (° C.) Na2HPO4/NaCl/EDTA (5′-(AAAAAAAAAAAAAA)-3′) [°C]	capture of specific amplicons without prior denaturation [1]
5′-d(TTTTTTTTTTTTTT)-3′ (SEQ ID NO: 126): poly-T containing X^T (sugars from the 5' end d5 X4 d5, backbone not given here)	5	14	–
DNA Nras Cap A: biotin-5′-TTCCACAGCACAA-3′ (SEQ ID NO:37), DNA capture probe (DNA, 5' {Biotin}, backbone not given here) [reference compound]	–	–	do not capture the specific amplicons at all
5′-d(TTTTTTTTTTTTTT)-3′ (SEQ ID NO: 110): partly modified poly-T with monomer V (sugars from the 5' end ddddVdVdVdVddd, backbone not given here)	23	16	–
LNA Nras Cap A: biotin-5′-TTCCACAGCACAA-3′ (SEQ ID NO:39), spiked with 12 LNA nucleosides (LNA nucleosides spiked in, positions not given here, 5' biotin)	–	–	capture very efficiently the specific amplicons without prior denaturation
5′-d(TTTTTTTTTTTTTT)-3′ (SEQ ID NO: 101): partly modified poly-T with monomer V (sugars from the 5' end d6 V2 d6, backbone not given here)	31	28	–
5′-d(TTTTTTTTTTTTTT)-3′ (SEQ ID NO: 144): fully modified poly-T oligonucleotide of structure Y (sugars from the 5' end Y13 d1, backbone not given here)	58	58	–
5′-d(TTTTTTTTTTTTTT)-3′ (SEQ ID NO: 104): partly modified poly-T with monomer V (sugars from the 5' end d6 V1 d1 V1 d5, backbone not given here)	30	23	–
5′-d(TTTTTTTTTTTTTT)-3′ (SEQ ID NO: 129): partly modified poly-T with monomer Y (sugars from the 5' end d7 Y1 d6, backbone not given here)	36	37	–
5′-d(TTTTTTTTTTTTTT)-3′ (SEQ ID NO: 107): partly modified poly-T with monomer V (sugars from the 5' end d5 V4 d5, backbone not given here)	23	31	–
5′-d(TTTTTTTTTTTTTT)-3′ (SEQ ID NO: 120): poly-T containing X^T (sugars from the 5' end d6 X2 d6, backbone not given here)	19	23	–
5′-d(TTTTTTTTTTTTTT)-3′ (SEQ ID NO: 117): poly-T containing X^T (sugars from the 5' end d7 X1 d6, backbone not given here)	23	23	–
5′-d(TTTTTTTTTTTTTT)-3′ (SEQ ID NO: 89): partly modified poly-T oligonucleotide with Z^T (48, 49) (DNA dTdTdTdTdTlTlTlTlTdTdTdTdTdT)	42	52	–
5′-d(TTTTTTTTTTTTTT)-3′ (SEQ ID NO: 141): partly modified poly-T with monomer Y (sugars from the 5' end ddddYdYdYdYddd, backbone not given here)	36	36	–
5′-d(TTTTTTTTTTTTTT)-3′ (SEQ ID NO: 80): unmodified poly-T oligonucleotide (Table 1, 42 and 43) (unmodified DNA) [reference compound]	36	32	–
5′-d(TTTTTTTTTTTTTT)-3′ (SEQ ID NO: 86): partly modified poly-T oligonucleotide with Z^T (46, 47) (DNA dTdTdTdTdTdTlTlTdTdTdTdTdTdT)	34	40	–
5′-d(TTTTTTTTTTTTTT)-3′ (SEQ ID NO: 98): partly modified poly-T with monomer V (sugars from the 5' end d7 V1 d6, backbone not given here)	32	27	–
5′-d(TTTTTTTTTTTTTT)-3′ (SEQ ID NO: 123): poly-T containing X^T (sugars from the 5' end d6 X1 d1 X1 d5, backbone not given here)	9	15	–
5′-d(TTTTTTTTTTTTTT)-3′ (SEQ ID NO: 132): partly modified poly-T with monomer Y (sugars from the 5' end d6 Y2 d6, backbone not given here)	35	37	–
5′-d(TTTTTTTTTTTTTT)-3′ (SEQ ID NO: 138): partly modified poly-T with monomer Y (sugars from the 5' end d5 Y4 d5, backbone not given here)	32	33	–
5′-d(TTTTTTTTTTTTTT)-3′ (SEQ ID NO: 92): partly modified poly-T oligonucleotide with Z^T (50, 51) (DNA dTdTdTdTlTdTlTdTlTdTlTdTdTdT)	47	53	–
5′-d(TTTTTTTTTTTTTT)-3′ (SEQ ID NO: 83): partly modified poly-T oligonucleotide with Z^T (44, 45) (DNA dTdTdTdTdTdTlTdTdTdTdTdTdTdT)	36	32	–
5′-d(TTTTTTTTTTTTTT)-3′ (SEQ ID NO: 135): partly modified poly-T with monomer Y (sugars from the 5' end d6 Y1 d1 Y1 d5, backbone not given here)	35	36	–
